How the values were obtained:
[1] = tested on: MDA-MB-231 human breast cancer cell line; experiment: Cell growth inhibition, WST-8 assay, MDA-MB-231; format: cell-based; conditions: MDA-MB-231, read-out: IC50 values (nM) In WST-assay (MDA-MB-231)
Method: (§1) The rate of cell growth inhibition after treatment with different concentrations of the compound was determined using a WST-8 kit (2-(2-methoxy-4-nitrophenyl)-3-(4-nitrophenyl)-5-(2, 4 disulfophenyl)-2H-tetrazolium monosodium salt; Dojindo Molecular Technologies, Inc., Gaithersburg, Md.). WST-8 was added at a final concentration of 10% to each well, and then the plates were incubated at 37° C. for 2-3 hrs. The absorbance of the samples was measured at 450 nm using a ULTRA Tecan Reader (Molecular Device).

[2] = target: T1, human XIAP protein (residues 120-356) (Homo sapiens, UniProt P98170); experiment: Fluorescence-polarization-based binding assay to XIAP protein (Smac2-F tracer); conditions: read-out: Binding to XIAP IC50 values
T1 construct: human XIAP protein (residues 120-356) (10 nM)
T1 sequence (P98170 120-356): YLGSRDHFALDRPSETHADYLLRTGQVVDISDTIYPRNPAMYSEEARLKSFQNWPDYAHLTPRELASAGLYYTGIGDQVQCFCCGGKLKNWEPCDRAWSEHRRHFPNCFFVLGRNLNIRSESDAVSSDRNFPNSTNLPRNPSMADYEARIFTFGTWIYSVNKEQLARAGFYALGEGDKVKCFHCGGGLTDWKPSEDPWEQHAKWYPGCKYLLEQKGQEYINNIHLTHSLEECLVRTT
Method: The polarization values were measured after 2 hours incubation, using the Ultra plate reader. […] Curve fitting is performed using GraphPad Prism® software.

SK-OV-3 = experiment: Cell growth inhibition, WST assay, SK-OV-3; format: cell-based; conditions: Homo sapiens
Method: as §1, with “Cells were seeded in 96-well flat bottom cell culture plates at a density of 3000 cells/well with a tested compound and incubated at 37° C. in an atmosphere of 95% air and 5% CO2 for 4 days. The rate” for “The rate”

IC50 [1] [nM]	IC50 [2] [nM]	IC50 (SK-OV-3) [nM]	Compound
< 1000	< 10	–	CN[C@@H](C)C(=O)N[C@H]1CC[C@H](n2cc(COCc3cn([C@H]4CC[C@H](NC(=O)[C@H](C)NC)C(=O)N5[C@H](CC[C@H]5C(=O)N[C@@H]5CCCc6ccccc65)C4)nn3)nn2)C[C@H]2CC[C@@H](C(=O)N[C@@H]3CCCc4ccccc43)N2C1=O (stereo in doubt) [SH-172]
–	< 50	–	CN[C@@H](C)C(=O)N[C@H]1CCCC[C@H]2CC[C@@H](C(=O)N[C@H](COCCn3cc(COC[C@@H](NC(=O)[C@@H]4CC[C@@H]5CCCC[C@H](NC(=O)[C@H](C)NC)C(=O)N54)c4ccccc4)nn3)c3ccccc3)N2C1=O [SH-143]
–	< 50	–	CN[C@@H](C)C(=O)N[C@H]1CCCC[C@H]2CC[C@@H](C(=O)N[C@H](COCc3cn([C@@H]4CC[C@H](NC(=O)[C@H](C)NC)C(=O)N5[C@H](CC[C@H]5C(=O)N[C@@H]5CCCc6ccccc65)C4)nn3)c3ccccc3)N2C1=O [SH-146]
< 1000	< 10	–	CN[C@@H](C)C(=O)N[C@H]1CC[C@@H](n2cc(COCc3cn([C@@H]4CC[C@H](NC(=O)[C@H](C)NC)C(=O)N5[C@H](CC[C@H]5C(=O)N[C@H]5CCCc6ccccc65)C4)nn3)nn2)C[C@H]2CC[C@@H](C(=O)NC3CCCc4ccccc43)N2C1=O (stereo partly shown) [SH-153]
< 1000	< 10	< 1000	CN[C@@H](C)C(=O)N[C@H]1CCCC[C@H]2CC[C@@H](C(=O)N[C@@H](c3ccccc3)c3cn(CCCCn4cc([C@@H](NC(=O)[C@@H]5CC[C@@H]6CCCC[C@H](NC(=O)[C@H](C)NC)C(=O)N65)c5ccccc5)nn4)nn3)N2C1=O [SH-166]
< 100	< 10	–	CN[C@@H](C)C(=O)N[C@H]1CC[C@H](n2cc(COCc3cn([C@H]4CC[C@H](NC(=O)[C@H](C)NC)C(=O)N5[C@H](CC[C@H]5C(=O)NC(c5ccccc5)c5ccccc5)C4)nn3)nn2)C[C@H]2CC[C@@H](C(=O)NC(c3ccccc3)c3ccccc3)N2C1=O [SH-176]
< 10000	< 100	–	CN[C@@H](C)C(=O)N[C@H]1CCCC[C@H]2CC[C@@H](C(=O)N[C@@H](c3ccccc3)c3cn(CCN4CCN(CCn5cc([C@@H](NC(=O)[C@@H]6CC[C@@H]7CCCC[C@H](NC(=O)[C@H](C)NC)C(=O)N76)c6ccccc6)nn5)CC4)nn3)N2C1=O [SH-178]
< 10000	< 100	–	C[C@H](NCCO)C(=O)N[C@H]1CCCC[C@H]2CC[C@@H](C(=O)N[C@@H](c3ccccc3)c3cn(CCN4CCN(CCn5cc([C@@H](NC(=O)[C@@H]6CC[C@@H]7CCCC[C@H](NC(=O)[C@H](C)NCCO)C(=O)N76)c6ccccc6)nn5)CC4)nn3)N2C1=O [SH-179]
< 10	< 100	< 10	CN[C@@H](C)C(=O)N[C@H]1CCCC[C@H]2CC[C@@H](C(=O)N[C@@H](c3ccc(F)cc3)c3cn(CCCCc4ccc(CCCCn5cc([C@@H](NC(=O)[C@@H]6CC[C@@H]7CCCC[C@H](NC(=O)[C@H](C)NC)C(=O)N76)c6ccc(F)cc6)nn5)cc4)nn3)N2C1=O [SH-182]
–	> 10000	–	CNC(Cc1c[nH]c2ccccc12)C(=O)NC1CCCCC2CCC(C(=O)NC(c3ccccc3)c3cn(CCCCc4ccc(CCCCn5cc(C(NC(=O)C6CCC7CCCCC(NC(=O)C(Cc8c[nH]c9ccccc89)NC)C(=O)N76)c6ccccc6)nn5)cc4)nn3)N2C1=O (stereo not shown) [SH-187]
< 100	< 100	< 100	CN[C@@H](C)C(=O)N[C@H]1CCCC[C@H]2CC[C@@H](C(=O)N[C@@H](c3ccccc3)c3ccc(CCCNC(=O)NCCCc4ccc([C@@H](NC(=O)[C@@H]5CC[C@@H]6CCCC[C@H](NC(=O)[C@@H](C)NC)C(=O)N65)c5ccccc5)cc4)cc3)N2C1=O [SH-188]
< 100	< 100	< 100	CN[C@@H](C)C(=O)N[C@H]1CCCC[C@H]2CC[C@@H](C(=O)N[C@@H](c3ccccc3)c3ccc(CCCNC(=S)NCCCc4ccc([C@@H](NC(=O)[C@@H]5CC[C@@H]6CCCC[C@H](NC(=O)[C@@H](C)NC)C(=O)N65)c5ccccc5)cc4)cc3)N2C1=O [SH-189]
< 10	< 100	< 10	CN[C@@H](C)C(=O)N[C@H]1CCCC[C@H]2CC[C@@H](C(=O)N[C@@H](c3ccccc3)c3ccc(CCCCNC(=O)NCCCCc4ccc([C@@H](NC(=O)[C@@H]5CC[C@@H]6CCCC[C@H](NC(=O)[C@H](C)NC)C(=O)N65)c5ccccc5)cc4)cc3)N2C1=O [SH-190]
< 1000	–	< 1000	CN[C@@H](C)C(=O)N[C@H]1CCCC[C@H]2CC[C@@H](C(=O)N[C@H](c3ccccc3)c3cn(CCCCc4ccc(CCCCn5cc([C@H](NC(=O)[C@@H]6CC[C@@H]7CCCC[C@H](NC(=O)[C@H](C)NC)C(=O)N76)c6ccccc6)nn5)cc4)nn3)N2C1=O [SH-206]

Further lines, the molecule ahead of its results:

Compound	IC50 [1] [nM]	IC50 [2] [nM]	IC50 (SK-OV-3) [nM]
CN[C@@H](C)C(=O)N[C@H]1CCCC[C@H]2CC[C@@H](C(=O)N[C@@H](c3ccccc3)c3ccc(CCCn4cc(COCc5cn(CCCc6ccc([C@@H](NC(=O)[C@@H]7CC[C@@H]8CCCC[C@H](NC(=O)[C@H](C)NC)C(=O)N87)c7ccccc7)cc6)nn5)nn4)cc3)N2C1=O [SH-155]	< 100	< 10	< 100
CN[C@@H](C)C(=O)N[C@H]1CCCC[C@H]2CC[C@@H](C(=O)N[C@@H](c3ccccc3)c3cn(CCOCCOCCn4cc([C@@H](NC(=O)[C@@H]5CC[C@@H]6CCCC[C@H](NC(=O)[C@H](C)NC)C(=O)N65)c5ccccc5)nn4)nn3)N2C1=O [SH-158]	< 1000	< 10	< 1000
CN[C@@H](C)C(=O)N[C@H]1CCCC[C@H]2CC[C@@H](C(=O)N[C@@H](c3ccccc3)c3cn(CCOCCn4cc([C@@H](NC(=O)[C@@H]5CC[C@@H]6CCCC[C@H](NC(=O)[C@H](C)NC)C(=O)N65)c5ccccc5)nn4)nn3)N2C1=O [SH-159]	< 1000	< 10	< 1000
CN[C@@H](C)C(=O)N[C@H]1CCCC[C@H]2CC[C@@H](C(=O)N[C@@H](c3ccccc3)c3cn(CCCCCCCCn4cc([C@@H](NC(=O)[C@@H]5CC[C@@H]6CCCC[C@H](NC(=O)[C@H](C)NC)C(=O)N65)c5ccccc5)nn4)nn3)N2C1=O [SH-167]	< 10	–	< 10
CN[C@@H](C)C(=O)N[C@H]1CC[C@@H](n2cc(COCc3cn([C@@H]4CC[C@H](NC(=O)[C@H](C)NC)C(=O)N5[C@H](CC[C@H]5C(=O)NC(c5ccccc5)c5ccccc5)C4)nn3)nn2)C[C@H]2CC[C@@H](C(=O)NC(c3ccccc3)c3ccccc3)N2C1=O [SH-177]	< 100	< 10	–
C[C@H](NCCO)C(=O)N[C@H]1CCCC[C@H]2CC[C@@H](C(=O)N[C@@H](c3ccccc3)c3cn(CCCCc4ccc(CCCCn5cc([C@@H](NC(=O)[C@@H]6CC[C@@H]7CCCC[C@H](NC(=O)[C@H](C)NCCO)C(=O)N76)c6ccccc6)nn5)cc4)nn3)N2C1=O [SH-180]	< 1000	< 100	< 1000
CN[C@@H](C)C(=O)N[C@H]1CCCC[C@H]2CC[C@@H](C(=O)N[C@@H](c3ccc(F)cc3)c3cn(CCN4CCN(CCn5cc([C@@H](NC(=O)[C@@H]6CC[C@@H]7CCCC[C@H](NC(=O)[C@H](C)NC)C(=O)N76)c6ccc(F)cc6)nn5)CC4)nn3)N2C1=O [SH-181]	< 10000	< 100	–
C[C@H](NCCO)C(=O)N[C@H]1CCCC[C@H]2CC[C@@H](C(=O)N[C@@H](c3ccc(F)cc3)c3cn(CCN4CCN(CCn5cc([C@@H](NC(=O)[C@@H]6CC[C@@H]7CCCC[C@H](NC(=O)[C@H](C)NCCO)C(=O)N76)c6ccc(F)cc6)nn5)CC4)nn3)N2C1=O [SH-183]	< 10000	< 100	–
C[C@H](NCCO)C(=O)N[C@H]1CCCC[C@H]2CC[C@@H](C(=O)N[C@@H](c3ccc(F)cc3)c3cn(CCCCc4ccc(CCCCn5cc([C@@H](NC(=O)[C@@H]6CC[C@@H]7CCCC[C@H](NC(=O)[C@H](C)NCCO)C(=O)N76)c6ccc(F)cc6)nn5)cc4)nn3)N2C1=O [SH-184]	< 10	< 100	< 100
CN[C@@H](C)C(=O)N[C@H]1CN(Cc2ccc(CN3CC[C@H]4CC[C@@H](C(=O)NC(c5ccccc5)c5ccccc5)N4C(=O)[C@@H](NC(=O)[C@H](C)NC)C3)cc2)CC[C@H]2CC[C@@H](C(=O)NC(c3ccccc3)c3ccccc3)N2C1=O [YP-317]	< 100	< 100	–
CN[C@@H](C)C(=O)N[C@H]1CN(C(=O)CCCCCCCCC(=O)N2CC[C@H]3CCC(C(=O)NC(c4ccccc4)c4ccccc4)N3C(=O)[C@@H](NC(=O)[C@H](C)NC)C2)CC[C@H]2CCC(C(=O)NC(c3ccccc3)c3ccccc3)N2C1=O (stereo partly shown) [YP-381]	< 10	–	< 10
CN[C@@H](C)C(=O)N[C@H]1CN(C(=O)CCCCCCCCCCC(=O)N2CC[C@H]3CC[C@@H](C(=O)NC(c4ccccc4)c4ccccc4)N3C(=O)[C@@H](NC(=O)[C@H](C)NC)C2)CC[C@H]2CC[C@@H](C(=O)NC(c3ccccc3)c3ccccc3)N2C1=O [YP-383]	< 10	–	< 10
CN[C@@H](C)C(=O)N[C@H]1CN(C(=O)CCCCCCC(=O)N2CC[C@H]3CCC(C(=O)NC(c4ccccc4)c4ccccc4)N3C(=O)[C@@H](NC(=O)[C@H](C)NC)C2)CC[C@H]2CCC(C(=O)NC(c3ccccc3)c3ccccc3)N2C1=O (stereo partly shown) [YP-385]	< 10	–	< 10
